The values below come from US8119116B2, “Therapeutics for cancer using 3-bromopyruvate and other selective inhibitors of ATP production” (John Hopkins University School of Medicine, priority 2001, dated 2012).

The test system of data set [1] is surrounding liver tissue and major tissues. Put plainly: Histology of surrounding liver and major tissues after intraarterial injection or embolization. As to conditions: rabbit, in vivo. The method, then:
Administration of anesthesia, intravenous access and sodium pentothal anesthesia were carried out as described in Example 12. Transcatheter hepatic artery injection of 3-BrPA was performed under fluoroscopy. The animals were brought to the angiography suite and intubated using a size 3.0 mm endotracheal tube (Mallinkrodt Medical, St. Louis, Mo.) but not ventilated. Surgical cut-down was performed to gain access into the right common femoral artery, after which a 3 French sheath (Cook Inc., Bloomington, Ind.) was placed. A specially manufactured 2 French catheter with a tip in the shape of a hockey-stick (JB1 catheter, Cook Inc., Bloomington, Ind.) was manipulated into the celiac axis after which a celiac arteriogram was performed in order to delineate the blood supply to the liver and confirm the location of the tumor. The tumor could readily be visualized as a region of hypervascular blush located on the left side of the liver near the gastric fundus. […]
Normal tissues and tumors were fixed in 10% formalin, sliced at […] intervals for gross examination, and then embedded completely in paraffin after which […] sections were stained with hemotoxylin and eosin. Tumor viability was estimated by visual inspection and expressed as a percentage of viable tumor area for each slice. The overall percentage of viable tumor in each rabbit was calculated. […]

Data set [2] concerns "metastatic" lung tumors. Put plainly: Systemic delivery via marginal ear vein, effect on metastatic lung tumors. It is filed as in vivo, rabbit. As to conditions: 25 ml, 0.5 mM, 4 days. The method, then:
Normal tissues and tumors were fixed in 10% formalin, sliced at […] intervals for gross examination, and then embedded completely in paraffin after which […] sections were stained with hemotoxylin and eosin. Tumor viability was estimated by visual inspection and expressed as a percentage of viable tumor area for each slice. The overall percentage of viable tumor in each rabbit was calculated.
Finally, it was important to examine the effect of 3-BrPA when delivered systemically (i.e., via the general circulation) on both animal toxicity and its capacity to damage liver implanted tumors.

With `O=C(O)C(=O)CBr` [3BrPA, 3-bromopyruvic acid], in data set [1], the “damage to 9 major tissues” value is “In no case was there evidence for damage”; the “state of portal veins, sinusoids and bile ducts” value is “remained completely intact”. Moreover, the “size of secondary tumors in the lungs” value in data set [2] is reported as “only very small tumors”. Moreover, the “"metastatic" lung tumors greater than 1 mm in diameter” value in data set [2] (5 in untreated animals) is “almost complete disappearance and none”.
